In US9913850B2, “Bile acids and biguanides as protease inhibitors for preserving the integrity of peptides in the gut” (AXCESS LIMITED, priority 2008, dated 2018):

What was measured:
Trypsin = biological target: T1, Trypsin (Bos taurus, UniProt P00760); test: Trypsin inhibition, fluorogenic substrate Z-L-arginine 4-methyl-7-coumarinylamide; type: biochemical, bovine; conditions: up to 30 minutes
T1 construct: Trypsin, from bovine pancreas; from tissue; host or cells: bovine pancreas
T1 sequence (P00760 24-246): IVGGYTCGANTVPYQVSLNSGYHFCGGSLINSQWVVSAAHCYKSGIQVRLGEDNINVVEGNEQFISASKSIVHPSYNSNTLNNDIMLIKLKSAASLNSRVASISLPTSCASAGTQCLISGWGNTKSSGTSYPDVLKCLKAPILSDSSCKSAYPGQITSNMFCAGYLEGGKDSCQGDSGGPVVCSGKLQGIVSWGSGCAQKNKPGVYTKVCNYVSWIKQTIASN
Description: (§1) The following Examples serve to illustrate the present invention, and should not be construed as limiting.
(§2) Trypsin, from bovine pancreas, was dissolved in Hanks Balanced Salt Solution (HBSS) at a concentration of 0.02 mg/ml. The substrate Z-L-arginine 4-methyl-7coumarinylamide was dissolved in HBSS at a concentration of 0.01 mg/ml, and sodium chenodeoxycholate was dissolved at a range of concentrations starting at 100 mg/ml. The assay was conducted in the wells of 96-well black plastic microplates, in which 20:1 of enzyme solution and 60:1 of bile salt were mixed together, and then 20:1 of substrate was added, with mixing, at the start of the reaction, which proceeded at room temperature for up to 30 minutes, with measurement at various intermediate time points.
Example 1 was repeated but with sodium deoxycholate instead of sodium chenodeoxycholate.
as §2, with “HBSS” for “Hanks Balanced Salt Solution (HBSS)”, “4-methyl-7-coumarinylamide” for “4-methyl-7coumarinylamide”, “ursodeoxycholate” for “chenodeoxycholate”, “50” for “100”, “100:1” for “60:1”, “37° C.” for “room temperature”
as §2, with “HBSS” for “Hanks Balanced Salt Solution (HBSS)”, “4-methyl-7-coumarinylamide” for “4-methyl-7coumarinylamide”, “glycodeoxycholate” for “chenodeoxycholate”, “100:1” for “60:1”, “37° C.” for “room temperature”
Example 5 was repeated but with sodium glycochenodeoxycholate instead of sodium ursodeoxycholate.
Example 6 was repeated but with sodium glycocholate instead of sodium glycodeoxycholate.
Example 9 was repeated but with trypsin (instead of chymotrypsin) from bovine plasma, Z-L-arginine 4-methyl-7-coumarinylamide as the substrate and metformin as the inhibitor.
as §2, with “HBSS” for “Hanks Balanced Salt Solution (HBSS)”, “4-methyl-7-coumarinylamide” for “4-methyl-7coumarinylamide”, “phenformin” for “sodium chenodeoxycholate”, “dissolved” for “dissolved at a range of concentrations starting”, “100:1” for “60:1”, “37° C.” for “room temperature”

gut proteases = test: Inhibition of gut proteases, general statement; type: biochemical; conditions: see FIGS. 5 and 6
chymotrypsin = biological target: T2, chymotrypsin (Bos taurus, UniProt P00766); test: Chymotrypsin inhibition, fluorogenic peptide substrates; type: biochemical, bovine
T2 construct: Chymotrypsin, from bovine plasma; from tissue
Description: as §1, §2
Example 1 was repeated but with chymotrypsin as the protease (instead of trypsin) and with glutaryl-L-phenylalanine 4-methyl-7-coumarinylamide as the substrate.
Example 2 was repeated but with sodium deoxycholate instead of sodium chenodeoxycholate.
Chymotrypsin, from bovine plasma, was dissolved in HBSS at a concentration of 0.02 mg/ml. The substrate Boc-β-benzyl-Asp-Pro-Arg-7-amido-4-methylcoumarin was dissolved in HBSS at a concentration of 0.01 mg/ml, and sodium chenodeoxycholate was dissolved at 100 mg/ml. The assay was conducted in the wells of 96-well clear plastic microplates, in which 20:1 of enzyme solution and 60:1 of bile salt were mixed together, and then 20:1 of substrate was added, with mixing, at the start of the reaction, which proceeded at 37° C. for up to 30 minutes, with measurement at various intermediate time points.

Thrombin = biological target: T3, Thrombin (Bos taurus, UniProt P00735); test: Thrombin inhibition, chromogenic substrate N-Benzoyl-Phe-Val-Arg-p-nitroanilide; type: biochemical; conditions: Examples 10, 11; thrombin from bovine plasma; bile salt from 100 mg/ml; 37° C., up to 30 minutes; FIGS. 13, 14
T3 construct: Thrombin, from bovine plasma; from tissue; host or cells: bovine plasma
Description: Thrombin, from bovine plasma, was dissolved in HBSS at a concentration of 0.5 mg/ml. The substrate N-Benzoyl-Phe-Val-Arg-p-nitroanilide hydrochloride was dissolved in HBSS at a concentration of 0.5 mg/ml, and sodium chenodeoxycholate was dissolved at a range of concentrations starting at 100 mg/ml. The assay was conducted in the wells of 96-well clear plastic microplates, in which 50:1 of enzyme solution and 100:1 of bile salt were mixed together, and then 50:1 of substrate was added, with mixing, at the start of the reaction, which proceeded at 37° C. for up to 30 minutes, with measurement at various intermediate time points. The progress of the enzymatic reaction was assessed by measuring the appearance of reaction product (p-nitroaniline) colorimetrically using a wavelength of 405 nm on an Anthos reader 2001 from Anthos Labtec Instruments.
Example 10 was repeated but with sodium deoxycholate instead of sodium chenodeoxycholate.

[1] = Examples 5-8, 13, trypsin from bovine pancreas, 37° C., FIGS. 7-11, 16
[2] = Example 3, bile salt 25 mg/ml, room temperature, FIG. 5
[3] = Example 4, substrate glutaryl-L-phenylalanine 4-methyl-7-coumarinylamide, bile salt 25 mg/ml, FIG. 6

How did the “Inhibition of trypsin activity over time” value (Trypsin; [1]) turn out when C[C@H](CCC(=O)O)[C@H]1CC[C@H]2[C@@H]3[C@@H](O)C[C@@H]4C[C@H](O)CC[C@]4(C)[C@H]3CC[C@]12C [ursodeoxycholate, sodium ursodeoxycholate] was run?
The value was “Inhibition of enzyme activity”.

For C[C@H](CCC(=O)NCC(=O)[O-])[C@H]1CC[C@H]2[C@@H]3CC[C@@H]4C[C@H](O)CC[C@]4(C)[C@H]3C[C@H](O)[C@]12C.[Na+] [glycodeoxycholate, sodium glycodeoxycholate], which “Inhibition of trypsin activity over time” value (Trypsin; [1]) is on record?
The value was “Inhibition of enzyme activity”.

How did the “Inhibition of trypsin activity over time” value (Trypsin; [1]) turn out when [H]/N=C(/N)N/C(=N/[H])NCCc1ccccc1 [phenformin] was run?
The value was “Inhibition of enzyme activity”.

C[C@H](CCC(=O)O)[C@H]1CC[C@H]2[C@@H]3[C@H](O)C[C@@H]4C[C@H](O)CC[C@]4(C)[C@H]3C[C@H](O)[C@]12C [cholate, cholic acid] was tested. Which “Inhibition of trypsin activity over time” value (Trypsin; [2]) did it give?
The value was “do not inhibit trypsin”.

What about the “Inhibitory effect on gut proteases” value (gut proteases) of the same compound?
Its value is “do not have this inhibitory effect”.

What about the “Inhibition of chymotrypsin activity over time” value (chymotrypsin; [3]) of the same compound?
Its value is “do not inhibit chymotrypsin”.

For C[C@H](CCC(=O)NCCS(=O)(=O)O)[C@H]1CC[C@H]2[C@@H]3[C@H](O)C[C@@H]4C[C@H](O)CC[C@]4(C)[C@H]3C[C@H](O)[C@]12C [taurocholate, taurocholic acid], which “Inhibition of trypsin activity over time” value (Trypsin; [2]) is on record?
The value was “do not inhibit trypsin”.

And the “Inhibitory effect on gut proteases” value (gut proteases)?
The value was “do not have this inhibitory effect”.

What about the “Inhibition of chymotrypsin activity over time” value (chymotrypsin; [3]) of the same compound?
Its value is “do not inhibit chymotrypsin”.

For C[C@H](CCC(=O)NCC(=O)O)[C@H]1CC[C@H]2[C@@H]3[C@H](O)C[C@@H]4C[C@H](O)CC[C@]4(C)[C@H]3C[C@H](O)[C@]12C [glycocholate, sodium glycocholate], which “Inhibition of trypsin activity over time” value (Trypsin; [1]) is on record?
The value was “Inhibition of enzyme activity”.

How did the “Inhibition of trypsin activity over time” value (Trypsin; Example 12, trypsin from bovine plasma, 37° C., FIG. 15) turn out when CN(C)C(=N)N=C(N)N [metformin] was run?
Its value is “Inhibition of enzyme activity”.

How did the “Inhibition of trypsin activity over time” value (Trypsin; [1]) turn out when C[C@H](CCC(=O)NCC(=O)O)[C@H]1CC[C@H]2[C@@H]3[C@H](O)C[C@@H]4C[C@H](O)CC[C@]4(C)[C@H]3CC[C@]12C [glycochenodeoxycholate, sodium glycochenodeoxycholate] was run?
Its value is “Inhibition of enzyme activity”.

With C[C@H](CCC(=O)O)[C@H]1CC[C@H]2[C@@H]3[C@H](O)C[C@@H]4C[C@H](O)CC[C@]4(C)[C@H]3CC[C@]12C [chenodeoxycholate, sodium chenodeoxycholate] as the compound, how does the “Inhibition of trypsin activity over time and dose response” value (Trypsin; Example 1, trypsin from bovine pancreas, bile salt from 100 mg/ml, room temperature, FIGS. 1, 2) read?
Its value is “Inhibition of enzyme activity”.

And the “Inhibition of thrombin activity over time” value (Thrombin)?
Its value is “Inhibition of enzyme activity”.

And the “Inhibition of chymotrypsin activity over time and dose response” value (chymotrypsin; Example 2, substrate glutaryl-L-phenylalanine 4-methyl-7-coumarinylamide, bile salt from 100 mg/ml, FIGS. 3, 4)?
Its value is “Inhibition of enzyme activity”.

What about the “Inhibition of chymotrypsin activity over time” value (chymotrypsin; Example 9, chymotrypsin from bovine plasma, substrate Boc-β-benzyl-Asp-Pro-Arg-7-amido-4-methylcoumarin, 100 mg/ml, 37° C., FIG. 12) of the same compound?
Its value is “Inhibition of enzyme activity”.

With C[C@H](CCC(=O)NCCS(=O)(=O)O)[C@H]1CC[C@H]2[C@@H]3CC[C@@H]4C[C@H](O)CC[C@]4(C)[C@H]3C[C@H](O)[C@]12C [taurodeoxycholate, taurodeoxycholic acid] as the compound, how does the “Inhibition of trypsin activity over time” value (Trypsin; [2]) read?
Its value is “do not inhibit trypsin”.

And the “Inhibitory effect on gut proteases” value (gut proteases)?
The value was “do not have this inhibitory effect”.

Which results are given for C[C@H](CCC(=O)[O-])[C@H]1CC[C@H]2[C@@H]3CC[C@@H]4C[C@H](O)CC[C@]4(C)[C@H]3C[C@H](O)[C@]12C.[Na+] [deoxycholate, sodium deoxycholate]?
Inhibition of trypsin activity over time (Trypsin; [2]): Inhibition of enzyme activity; Inhibition of thrombin activity over time (Thrombin): Inhibition of enzyme activity; Inhibition of chymotrypsin activity over time (chymotrypsin; [3]): Inhibition of enzyme activity
